Reference: ChEMBL document CHEMBL1201862, “PubChem BioAssay data set” (2004)
Calls of active or inactive are those of the source.

How the values were obtained:
[1] = molecular target: Peroxisome proliferator-activated receptor gamma/Nuclear receptor coactivator 1 (Homo sapiens, UniProt P37231); experiment: (§1) TR-FRET dose response biochemical High Throughput Screening assay for agonists of the steroid receptor coactivator 1 (SRC-1) recruitment by the peroxisome proliferator-activated receptor gamma (PPAR gamma): non-selective agonists. [Related pubchem assays (depositor defined):AID1300, AID1808, AID504735, AID631]; format: protein assay
[2] = molecular target: Peroxisome proliferator-activated receptor gamma/Nuclear receptor coactivator 3 (Homo sapiens, UniProt P37231); experiment: as §1, with “3 (SRC-3)” for “1 (SRC-1)”, “assays: 1301 (Confirmation screen.), 1048 (Primary screen.)]” for “assays (depositor defined):AID1300, AID1808, AID504735, AID631]”; format: functional
Chain of Peroxisome proliferator-activated receptor gamma/Nuclear receptor coactivator 3 (P37231 whole entry): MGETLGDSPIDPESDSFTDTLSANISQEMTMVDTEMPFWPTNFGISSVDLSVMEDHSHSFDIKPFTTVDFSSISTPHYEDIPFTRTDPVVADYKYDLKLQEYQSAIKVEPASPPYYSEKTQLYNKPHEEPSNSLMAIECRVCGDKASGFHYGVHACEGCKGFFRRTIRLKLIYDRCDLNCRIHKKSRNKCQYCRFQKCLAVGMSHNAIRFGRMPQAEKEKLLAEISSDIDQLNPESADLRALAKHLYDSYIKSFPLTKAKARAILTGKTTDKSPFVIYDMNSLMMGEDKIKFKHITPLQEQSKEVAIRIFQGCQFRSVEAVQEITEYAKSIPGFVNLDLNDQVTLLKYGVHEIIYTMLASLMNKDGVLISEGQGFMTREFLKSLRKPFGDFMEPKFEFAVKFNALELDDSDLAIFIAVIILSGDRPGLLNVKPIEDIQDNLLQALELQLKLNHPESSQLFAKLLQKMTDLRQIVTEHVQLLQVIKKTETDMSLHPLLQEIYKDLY
Chain of Peroxisome proliferator-activated receptor gamma/Nuclear receptor coactivator 3 (Q9Y6Q9 whole entry, further chain): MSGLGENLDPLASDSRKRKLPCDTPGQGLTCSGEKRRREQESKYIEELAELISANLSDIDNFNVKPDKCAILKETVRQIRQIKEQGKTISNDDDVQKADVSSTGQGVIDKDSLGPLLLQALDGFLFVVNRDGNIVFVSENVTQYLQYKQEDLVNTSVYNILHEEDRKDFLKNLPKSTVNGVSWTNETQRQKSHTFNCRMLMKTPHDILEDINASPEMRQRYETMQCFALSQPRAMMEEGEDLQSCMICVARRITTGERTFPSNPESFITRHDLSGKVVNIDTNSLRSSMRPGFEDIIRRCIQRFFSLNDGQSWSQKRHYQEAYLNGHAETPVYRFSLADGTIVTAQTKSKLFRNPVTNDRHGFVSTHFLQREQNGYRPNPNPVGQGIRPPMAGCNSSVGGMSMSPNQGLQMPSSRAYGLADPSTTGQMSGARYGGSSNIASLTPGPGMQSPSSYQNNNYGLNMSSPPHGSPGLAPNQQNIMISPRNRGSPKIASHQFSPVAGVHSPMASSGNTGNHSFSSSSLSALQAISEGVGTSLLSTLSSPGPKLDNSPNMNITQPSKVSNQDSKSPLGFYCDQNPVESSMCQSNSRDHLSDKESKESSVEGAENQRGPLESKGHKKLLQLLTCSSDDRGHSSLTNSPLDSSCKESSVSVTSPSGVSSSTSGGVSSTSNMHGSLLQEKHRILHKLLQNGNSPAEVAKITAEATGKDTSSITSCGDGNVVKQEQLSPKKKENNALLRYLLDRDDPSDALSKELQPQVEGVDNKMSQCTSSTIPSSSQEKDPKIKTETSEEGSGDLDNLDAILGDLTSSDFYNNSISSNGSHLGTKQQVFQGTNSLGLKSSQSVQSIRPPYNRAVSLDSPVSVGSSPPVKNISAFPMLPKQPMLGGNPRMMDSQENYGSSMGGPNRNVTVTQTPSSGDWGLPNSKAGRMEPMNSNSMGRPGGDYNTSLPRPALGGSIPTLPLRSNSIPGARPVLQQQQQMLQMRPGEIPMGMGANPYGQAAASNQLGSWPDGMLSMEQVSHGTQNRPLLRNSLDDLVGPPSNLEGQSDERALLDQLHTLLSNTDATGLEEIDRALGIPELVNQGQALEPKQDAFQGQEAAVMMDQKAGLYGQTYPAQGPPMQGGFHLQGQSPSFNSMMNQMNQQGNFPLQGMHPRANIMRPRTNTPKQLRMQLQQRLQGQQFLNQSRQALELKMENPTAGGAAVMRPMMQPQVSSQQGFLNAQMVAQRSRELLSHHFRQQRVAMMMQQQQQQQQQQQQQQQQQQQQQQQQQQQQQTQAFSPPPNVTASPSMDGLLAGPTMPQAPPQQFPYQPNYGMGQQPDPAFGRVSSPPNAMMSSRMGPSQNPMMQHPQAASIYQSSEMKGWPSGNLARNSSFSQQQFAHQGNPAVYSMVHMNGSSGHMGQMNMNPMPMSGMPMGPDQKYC

Large T antigen = Large T antigen (Simian virus 40, UniProt P03070); format: functional, Betapolyomavirus macacae;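 note: Confirmatory-stage PubChem screen for compounds that inhibit SV40 T antigen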
Chain of Large T antigen (P03070 whole entry): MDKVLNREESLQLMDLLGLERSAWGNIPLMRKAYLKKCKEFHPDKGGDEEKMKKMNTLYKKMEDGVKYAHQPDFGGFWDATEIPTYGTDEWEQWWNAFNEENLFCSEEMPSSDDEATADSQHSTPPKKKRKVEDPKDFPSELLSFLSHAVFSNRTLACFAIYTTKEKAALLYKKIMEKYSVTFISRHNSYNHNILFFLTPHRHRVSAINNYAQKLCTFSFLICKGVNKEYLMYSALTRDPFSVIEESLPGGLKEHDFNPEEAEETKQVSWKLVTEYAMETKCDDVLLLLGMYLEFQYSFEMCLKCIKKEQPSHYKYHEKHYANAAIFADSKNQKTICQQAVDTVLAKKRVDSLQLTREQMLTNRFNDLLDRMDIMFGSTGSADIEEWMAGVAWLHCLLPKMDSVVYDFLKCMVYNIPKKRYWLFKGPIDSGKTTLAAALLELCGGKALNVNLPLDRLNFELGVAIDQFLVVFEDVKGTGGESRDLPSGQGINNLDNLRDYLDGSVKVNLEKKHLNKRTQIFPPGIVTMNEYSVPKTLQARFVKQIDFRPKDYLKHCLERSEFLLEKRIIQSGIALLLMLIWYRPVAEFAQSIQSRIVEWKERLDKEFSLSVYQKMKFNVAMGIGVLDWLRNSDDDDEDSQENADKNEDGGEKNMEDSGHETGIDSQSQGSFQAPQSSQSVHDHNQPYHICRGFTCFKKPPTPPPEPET

[3] = molecular target: Peroxisome proliferator-activated receptor gamma/Nuclear receptor coactivator 2 (Homo sapiens, UniProt P37231); experiment: TR-FRET dose response biochemical High Throughput Screening assay for agonists of the steroid receptor coactivator 2 (SRC-2) recruitment by the peroxisome proliferator-activated receptor gamma (PPAR gamma): non-selective agonists. [Related pubchem assays: 1297, 1032 ]; format: functional
[4] = inhibition of K1F phage lysis, E. coli UTI89, bacterial capsule biogenesis inhibitors, alamar blue (AID 488966); format: functional
[5] = molecular target: T1, Replicative DNA helicase DnaB (Mycobacterium tuberculosis, UniProt P9WMR3); experiment: DnaB intein splicing inhibitors, dose response, biochemical, cell-free fluorescence (AID 449749); format: functional
T1 sequence (P9WMR3 whole entry): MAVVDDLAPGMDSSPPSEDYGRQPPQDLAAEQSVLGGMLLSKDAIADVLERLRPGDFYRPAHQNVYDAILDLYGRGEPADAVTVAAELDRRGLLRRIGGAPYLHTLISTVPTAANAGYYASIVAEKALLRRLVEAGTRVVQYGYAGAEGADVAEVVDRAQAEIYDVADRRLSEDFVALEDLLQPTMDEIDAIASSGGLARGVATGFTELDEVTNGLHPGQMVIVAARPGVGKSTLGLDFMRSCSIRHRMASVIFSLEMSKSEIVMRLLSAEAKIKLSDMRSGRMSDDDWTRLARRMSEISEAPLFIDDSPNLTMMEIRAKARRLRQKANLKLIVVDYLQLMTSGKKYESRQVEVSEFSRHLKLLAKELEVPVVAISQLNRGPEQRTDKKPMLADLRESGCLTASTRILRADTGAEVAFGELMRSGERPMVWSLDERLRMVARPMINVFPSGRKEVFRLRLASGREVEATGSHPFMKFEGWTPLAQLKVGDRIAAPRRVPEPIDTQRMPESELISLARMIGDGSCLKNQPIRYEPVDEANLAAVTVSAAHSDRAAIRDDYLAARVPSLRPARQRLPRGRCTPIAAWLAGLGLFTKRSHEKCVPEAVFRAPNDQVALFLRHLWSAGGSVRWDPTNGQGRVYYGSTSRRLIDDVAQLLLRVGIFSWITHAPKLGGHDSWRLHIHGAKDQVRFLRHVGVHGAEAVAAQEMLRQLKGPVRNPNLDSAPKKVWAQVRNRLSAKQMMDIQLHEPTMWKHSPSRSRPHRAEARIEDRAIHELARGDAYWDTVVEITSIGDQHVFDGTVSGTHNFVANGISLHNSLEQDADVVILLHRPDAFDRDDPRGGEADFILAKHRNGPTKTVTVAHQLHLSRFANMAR

[6] = molecular target: T2, Endoribonuclease toxin MazF (Escherichia coli K-12, UniProt P0AE70); experiment: MazF toxin RNase activators, dose response, biochemical, fluorescence, single-stranded RNA substrate, uHTS hits (AID 588481); format: functional
T2 sequence (P0AE70 whole entry): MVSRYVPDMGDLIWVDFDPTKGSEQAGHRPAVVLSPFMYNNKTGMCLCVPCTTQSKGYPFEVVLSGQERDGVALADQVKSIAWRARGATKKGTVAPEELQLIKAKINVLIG

Vero = Vero cell cytotoxicity, cytotoxicity control for flavivirus capping enzyme inhibitors (AID 588742); format: functional; conditions: Chlorocebus sabaeus
Protein RecA = molecular target: T3, Protein RecA (Mycobacterium tuberculosis, UniProt P9WHJ3); experiment: Fluorescence Cell-Free Homogeneous Dose Retest to Identify Inhibitors of RecA-Intein Splicing Activity. [Related pubchem assays (depositor defined):AID2097, AID2223, AID489010, AID492950]; format: functional
T3 sequence (P9WHJ3 whole entry): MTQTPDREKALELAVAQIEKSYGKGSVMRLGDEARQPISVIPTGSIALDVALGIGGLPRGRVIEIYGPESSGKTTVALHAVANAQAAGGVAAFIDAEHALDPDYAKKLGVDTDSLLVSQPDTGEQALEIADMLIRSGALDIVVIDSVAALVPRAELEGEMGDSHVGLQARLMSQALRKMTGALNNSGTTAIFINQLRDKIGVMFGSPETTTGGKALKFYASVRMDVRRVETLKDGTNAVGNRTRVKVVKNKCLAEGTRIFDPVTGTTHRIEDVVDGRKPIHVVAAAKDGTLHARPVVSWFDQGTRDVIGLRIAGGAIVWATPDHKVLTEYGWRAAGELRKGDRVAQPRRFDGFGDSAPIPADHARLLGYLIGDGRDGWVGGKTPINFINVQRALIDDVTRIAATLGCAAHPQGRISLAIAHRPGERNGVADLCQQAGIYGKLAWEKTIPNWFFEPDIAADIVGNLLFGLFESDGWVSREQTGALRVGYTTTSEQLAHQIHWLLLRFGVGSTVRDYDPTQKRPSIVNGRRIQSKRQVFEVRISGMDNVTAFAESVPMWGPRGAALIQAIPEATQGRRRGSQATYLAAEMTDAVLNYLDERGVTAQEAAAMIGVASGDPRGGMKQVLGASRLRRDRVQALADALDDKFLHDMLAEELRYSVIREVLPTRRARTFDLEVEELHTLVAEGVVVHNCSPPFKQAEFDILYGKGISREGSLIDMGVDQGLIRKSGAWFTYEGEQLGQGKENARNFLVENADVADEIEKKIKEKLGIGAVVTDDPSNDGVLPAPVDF

[7] = molecular target: T2, Endoribonuclease toxin MazF; experiment: fluorescent RNA oligo signal without MazF, dose response, counter-screen for MazEF activator project, biochemical, fluorescence, single-stranded RNase substrate (AID 588502); format: functional
BJ [8] = experiment: cytotoxicity toward BJ-TERT fibroblasts, dose response, cell-based, RAS-independent, luminescence (AID 1933); format: functional; conditions: Homo sapiens
BJ [9] = experiment: cells; format: functional, cell-based; conditions: Homo sapiens
[10] = molecular target: T4, Mannose-6-phosphate isomerase (Homo sapiens, UniProt P34949); experiment: inhibitors of human PMI, primary screen, biochemical, fluorescence intensity, coupled assay (AID 1209)
T4 sequence (P34949 whole entry): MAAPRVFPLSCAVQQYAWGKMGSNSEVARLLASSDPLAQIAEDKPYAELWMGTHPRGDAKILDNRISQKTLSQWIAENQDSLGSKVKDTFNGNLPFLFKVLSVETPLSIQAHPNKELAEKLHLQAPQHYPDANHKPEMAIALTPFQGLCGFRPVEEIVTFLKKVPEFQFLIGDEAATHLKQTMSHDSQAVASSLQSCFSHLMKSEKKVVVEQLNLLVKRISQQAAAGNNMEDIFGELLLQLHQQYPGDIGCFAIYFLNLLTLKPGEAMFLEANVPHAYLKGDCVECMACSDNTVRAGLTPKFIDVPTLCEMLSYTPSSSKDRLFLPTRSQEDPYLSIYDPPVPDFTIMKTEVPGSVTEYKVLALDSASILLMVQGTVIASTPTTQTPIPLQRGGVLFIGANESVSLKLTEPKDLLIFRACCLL

[11] = molecular target: Bifunctional protein GlmU (Mycobacterium tuberculosis, UniProt P9WMN3); experiment: Inhibitors of Mycobacterial Glucosamine-1-phosphate acetyl transferase (GlmU). Secondary screen.; parameters: species or system Mycobacterium tuberculosis H37Rv
Chain of Bifunctional protein GlmU (P9WMN3 whole entry): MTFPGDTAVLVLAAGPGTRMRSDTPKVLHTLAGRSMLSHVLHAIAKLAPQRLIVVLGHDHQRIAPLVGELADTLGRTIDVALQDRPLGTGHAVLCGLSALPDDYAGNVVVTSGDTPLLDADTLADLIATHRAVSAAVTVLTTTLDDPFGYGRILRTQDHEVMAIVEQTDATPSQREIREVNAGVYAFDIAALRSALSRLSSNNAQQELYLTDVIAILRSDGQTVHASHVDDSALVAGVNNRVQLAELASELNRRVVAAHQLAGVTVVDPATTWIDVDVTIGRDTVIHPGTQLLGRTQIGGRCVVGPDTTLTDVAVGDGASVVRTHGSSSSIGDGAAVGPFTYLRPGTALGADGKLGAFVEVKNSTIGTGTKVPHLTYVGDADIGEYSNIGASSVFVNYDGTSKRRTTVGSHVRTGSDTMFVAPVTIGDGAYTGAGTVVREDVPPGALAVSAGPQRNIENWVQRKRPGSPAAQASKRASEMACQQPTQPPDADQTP

J774.A1 = experiment: Confirmation of image-based Screening Assay for Inhibitors of Phagocytosis. [Related pubchem assays (depositor defined):AID1029, AID1643]; format: functional, cell-based; conditions: Mus musculus
BJ [12] = experiment: cytotoxicity toward BJ-TERT-LT-ST fibroblasts, dose response, cell-based, RAS-independent, luminescence (AID 1935); format: functional; conditions: Homo sapiens;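 note: BJ fibroblasts immortalized with TERT plus LT and ST oncogenes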
[13] = cytotoxicity toward DRD oncogenic fibroblasts, dose response, cell-based, non-viral oncogenic, luminescence (AID 1934); format: functional; conditions: Homo sapiens
[14] = molecular target: T4, Mannose-6-phosphate isomerase; experiment: human PMI inhibitors, high substrate, primary screen, biochemical, fluorescence intensity, high mannose 6-phosphate (AID 1220)
X-box-binding protein 1 = X-box-binding protein 1 (Homo sapiens, UniProt P17861); format: functional, Cricetulus griseus;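 note: confirmatory dose-response counter-screen serving a CHOP assay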
Chain of X-box-binding protein 1 (P17861 whole entry): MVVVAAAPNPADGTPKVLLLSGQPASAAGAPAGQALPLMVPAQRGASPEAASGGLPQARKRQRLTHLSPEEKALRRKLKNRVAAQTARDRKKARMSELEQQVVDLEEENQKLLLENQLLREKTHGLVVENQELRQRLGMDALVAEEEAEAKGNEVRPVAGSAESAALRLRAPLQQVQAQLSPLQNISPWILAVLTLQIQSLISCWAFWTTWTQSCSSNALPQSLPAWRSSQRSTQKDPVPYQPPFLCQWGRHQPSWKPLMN

[15] = molecular target: Heat shock protein HSP 90-alpha (Homo sapiens, UniProt P07900); format: functional, organism-based
BJ [16] = experiment: cytotoxicity toward Ras-transformed BJeLR fibroblasts, dose response, cell-based, alamar blue fluorescence, cherrypicked samples (AID 2631); format: functional; conditions: Homo sapiens;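 note: confirmatory dose-response assay in RAS-dependent BJ fibroblasts engineered with TERT, LT and ST, with cytotoxicity read by fluorescence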
[17] = Fluorescence-based cell-based high throughput dose response assay for inhibitors of the interaction of nucleotide-binding oligomerization domain containing 2 (NOD2) and the receptor-interacting serine-threonine kinase 2 (RIPK2).; format: functional; conditions: Homo sapiens
[18] = molecular target: T5, Dual specificity protein phosphatase 3 (Homo sapiens, UniProt P51452); experiment: SAR VHR1 absorbance Assay for In Vitro dose response studies. [Related pubchem assays (depositor defined):AID1654, AID1661, AID1878, AID1992, AID2004]
T5 sequence (P51452 whole entry): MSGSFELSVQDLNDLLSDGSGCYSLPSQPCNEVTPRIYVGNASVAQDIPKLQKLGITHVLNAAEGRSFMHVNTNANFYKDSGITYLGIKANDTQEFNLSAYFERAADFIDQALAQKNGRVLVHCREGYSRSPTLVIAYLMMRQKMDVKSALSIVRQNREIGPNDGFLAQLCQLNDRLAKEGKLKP

[19] = molecular target: T5, Dual specificity protein phosphatase 3; experiment: SAR VHR1 Fluorescent Assay for In Vitro dose response studies. [Related pubchem assays (depositor defined):AID1654, AID1661, AID1878, AID1992, AID2004, AID2070, AID2085]; format: functional
[20] = molecular target: T6, Tyrosine-protein phosphatase non-receptor type 7 (Homo sapiens, UniProt P35236); experiment: redox-dependent HePTP inhibition, mechanism study, biochemical, fluorescence (AID 2068); format: functional
T6 sequence (P35236 whole entry): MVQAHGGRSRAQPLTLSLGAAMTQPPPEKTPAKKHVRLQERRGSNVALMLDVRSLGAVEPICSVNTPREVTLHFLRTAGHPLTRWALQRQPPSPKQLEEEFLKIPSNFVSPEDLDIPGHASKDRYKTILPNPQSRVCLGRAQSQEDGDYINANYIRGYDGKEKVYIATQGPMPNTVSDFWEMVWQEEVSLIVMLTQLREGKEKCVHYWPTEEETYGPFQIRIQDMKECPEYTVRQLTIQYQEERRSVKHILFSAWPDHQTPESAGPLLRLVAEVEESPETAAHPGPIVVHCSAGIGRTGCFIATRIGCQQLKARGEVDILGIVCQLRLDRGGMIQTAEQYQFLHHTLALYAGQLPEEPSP

[21] = molecular target: T7, Dual specificity protein phosphatase 6 (Rattus norvegicus, UniProt Q64346); experiment: SAR analysis of inhibitors of MKP-3 - Set 2. [Related pubchem assays (depositor defined):AID1055, AID1661, AID425, AID553, AID566]; format: functional
T7 sequence (Q64346 whole entry): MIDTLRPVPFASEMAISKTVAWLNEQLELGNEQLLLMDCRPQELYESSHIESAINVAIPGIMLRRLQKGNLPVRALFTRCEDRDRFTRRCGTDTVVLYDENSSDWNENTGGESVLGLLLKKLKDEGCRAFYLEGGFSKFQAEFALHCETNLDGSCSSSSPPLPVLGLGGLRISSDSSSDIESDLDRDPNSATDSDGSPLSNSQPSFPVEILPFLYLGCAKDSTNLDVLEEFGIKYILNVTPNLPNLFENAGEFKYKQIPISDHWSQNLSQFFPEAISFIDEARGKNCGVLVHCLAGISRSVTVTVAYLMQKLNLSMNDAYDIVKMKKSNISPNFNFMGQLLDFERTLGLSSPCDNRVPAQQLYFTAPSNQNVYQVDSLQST

[22] = molecular target: T6, Tyrosine-protein phosphatase non-receptor type 7; experiment: SAR analysis of chemical inhibitors of HePTP using a Fluorescent assay - Set 2. [Related pubchem assays (depositor defined):AID1059, AID1077, AID1661, AID2085, AID521]; format: functional
[23] = molecular target: T5, Dual specificity protein phosphatase 3; experiment: SAR VHR1 Fluorescent Assay for In Vitro dose response studies Set 2. [Related pubchem assays (depositor defined):AID1654, AID1661, AID1878]; format: functional
[24] = molecular target: T7, Dual specificity protein phosphatase 6; format: functional
[25] = molecular target: Eukaryotic translation initiation factor 4H (Homo sapiens, UniProt Q15056); experiment: eIF4H inhibition in translation initiation, SAR follow-up (AID 435011); format: functional
[26] = molecular target: Polyadenylate-binding protein 1 (Homo sapiens, UniProt P11940); experiment: PABP inhibition in translation initiation, SAR follow-up (AID 435018); format: functional
Chain of Polyadenylate-binding protein 1 (P11940 whole entry): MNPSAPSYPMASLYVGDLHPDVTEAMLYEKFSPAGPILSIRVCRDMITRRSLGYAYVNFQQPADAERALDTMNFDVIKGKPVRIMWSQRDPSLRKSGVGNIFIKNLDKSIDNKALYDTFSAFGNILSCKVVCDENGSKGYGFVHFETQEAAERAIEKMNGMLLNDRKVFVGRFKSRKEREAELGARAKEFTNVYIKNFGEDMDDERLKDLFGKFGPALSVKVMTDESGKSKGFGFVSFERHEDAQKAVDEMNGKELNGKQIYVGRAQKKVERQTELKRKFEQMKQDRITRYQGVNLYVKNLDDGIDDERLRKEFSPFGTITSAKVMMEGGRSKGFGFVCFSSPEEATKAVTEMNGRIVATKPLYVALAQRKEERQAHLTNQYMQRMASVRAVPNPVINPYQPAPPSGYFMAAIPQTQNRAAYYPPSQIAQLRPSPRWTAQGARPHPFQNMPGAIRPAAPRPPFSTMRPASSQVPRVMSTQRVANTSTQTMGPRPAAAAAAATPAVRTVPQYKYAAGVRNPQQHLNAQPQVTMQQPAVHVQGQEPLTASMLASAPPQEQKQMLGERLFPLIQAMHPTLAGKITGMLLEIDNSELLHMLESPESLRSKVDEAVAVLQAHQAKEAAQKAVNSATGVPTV

For `CC(=O)Oc1c(/C=C(\C#N)C(N)=O)[nH]c2ccccc12`, the EC50 [1] was 20.5 µM (inactive), the EC50 [2] was > 79.4 µM (not active) and the IC50 (Large T antigen) was 22.8 µM (active). The EC50 [3] was 22.6 µM (not active), the IC50 [4] was > 300 µM (active) and the AC50 [5] was > 380 µM (inconclusive). The EC50 [6] was > 99 µM (inactive), the CC50 (Vero) was > 40 µM (active) and the EC50 (Protein RecA) was 0.0314 µM (active). For the same compound, the EC50 [7] was > 99 µM (inactive).

In the case of `CC1=CC(=O)C=C(C)C1=NOS(=O)(=O)c1ccccc1`, the EC50 (BJ [8]) is reported as 4.5 µM (active), the EC50 (BJ [9]) is reported as 4.78 µM (active) and the IC50 [10] is reported as 14.4 µM (active). The IC50 [11] was 165 µM (active), the IC50 (J774.A1) was 0.47 µM (active) and the EC50 (BJ [12]) was 5.67 µM (inconclusive). The EC50 [13] was 7.26 µM (active), the IC50 [14] was 47.3 µM (active) and the “Absolute IC50 (XBP1)” value (X-box-binding protein 1) was 10 µM. For the same compound, the AC50 [15] was 0.928 µM (active), the EC50 (BJ [16]) was 1.35 µM (inconclusive) and the IC50 [17] was 5.52 µM (active).

With `CCOc1ccc(-n2c(N)c(C(=O)N3CCN(C)CC3)sc2=S)cc1` the IC50 [18] was > 100 µM (inactive), the IC50 [19] was > 99 µM (inactive) and the IC50 [20] was > 100 µM (inactive). For the same compound, the IC50 [21] was > 100 µM (inactive), the IC50 [22] was > 100 µM (inactive) and the IC50 [23] was > 100 µM (inactive). For the same compound, the IC50 [24] was > 99 µM (inactive).

With `O=C(Nc1ccccc1)C1CCN(C(=O)c2cccs2)CC1` the IC50 [25] was 21.4 µM (active) and the IC50 [26] was 7.49 µM (active).
